Here are results for one compound from patent publication US7736881B2, “Antibacterial and herbicidal compounds and system for screening the same” (University of Utah Research Foundation, priority 2000, dated 2010).

“Also recorded” adds a separate entry of the source.

The subject of assay [1] is Strain JC7623 dxs::pCAT53-3 transformed with pLME10 (R. capsulatus dxsB in pET11-A). Briefly: Screen for antimicrobial agent using strain JC7623 dxs::pCAT53-3 transformed with pLME10 (plate growth). It counts as cell-based, E. coli.
Assay [2] has as its system Strain RMC25 electroporated with pLME10 (R. capsulatus dxsB in pET11-A). As to the kind of experiment: Screen for antimicrobial agent using strain RMC25 electroporated with pLME10 (plate growth). The assay is classed as cell-based, S. typhimurium.
[3] abbreviates: LB/kan/ME/fosmidomycin, fosmidomycin ~4 μg/mL, ME 50 mg/L, after 1 day.
Where [4] appears, read: after 2.5 days, fosmidomycin ~4 μg/mL, ME 50 mg/L.

Turning to `O=CN(O)CCCP(=O)(O)O` [fosmidomycin], the “growth on Plate F” value is on record as “microcolonies” in assay [1] and “colonies” in assay [2]. The “growth on plate F compared with plate C (LB/kan/MVA/arabinose without fosmidomycin)” value in assay [1] and in assay [2] was “equal” in each case. Besides, the “growth on Plate E” value was “no growth” in assay [1] (LB/ka/IPTG/fosmidomycin, fosmidomycin ~4 μg/mL, IPTG 1 mM, after 2.5 days) and “no growth; also recorded: growth is inhibited” in assay [2] (LB/kan/IPTG/fosmidomycin, fosmidomycin ~4 μg/mL, IPTG 1 mM, after 2.5 days). Besides, the “growth on Plate G” value in assay [1] (setting [3]) and in assay [2] (setting [3]) was “colonies” throughout. The “growth on plate G compared with plate D (LB/kan/ME without fosmidomycin)” value in assay [1] (setting [4]) and in assay [2] (setting [4]) was “equal” in each case.
